Measurements taken from the CheMixHub viscosity set.

Assay: xn = mol fraction of the nth substance listed

CC(C)CCO + CCO
viscosity [mPa·s]
Conditions	x1 = 0.0558	x1 = 0.1156	x1 = 0.1843	x1 = 0.2587	x1 = 0.3588	x1 = 0.4457	x1 = 0.5523	x1 = 0.6771	x1 = 0.8255	x2 = 0.5
298.15 K, 100 kPa	1.291	1.591	1.919	2.235	2.576	2.831	3.086	3.312	3.463	–
303.15 K, 100 kPa	1.175	1.471	1.806	2.029	2.353	2.549	2.756	2.917	2.945	–
308.15 K, 100 kPa	1.236	1.672	2.049	2.279	2.559	2.699	2.763	2.814	2.815	–
308.15 K, 101 kPa	–	–	–	–	–	–	–	–	–	1.747
313.15 K, 101 kPa	–	–	–	–	–	–	–	–	–	1.519
318.15 K, 101 kPa	–	–	–	–	–	–	–	–	–	1.372

CCC(=O)O.OCCNCCO + CCO
303.15 K, 101 kPa
Conditions	viscosity [mPa·s]
x1 = 0.5084	116.5
x1 = 0.6965	177.5
x1 = 0.804	226.5

CCOCCO + CCO
298.15 K, 101 kPa
Conditions	viscosity [mPa·s]
x1 = 0.0538	1.147
x1 = 0.1133	1.207
x1 = 0.1798	1.272
x1 = 0.2542	1.341
x1 = 0.3383	1.416
x1 = 0.4341	1.497
x1 = 0.544	1.581
x1 = 0.6716	1.669
x1 = 0.8215	1.761

CNC(C)=O + CCO
303.15 K, 101 kPa
Conditions	viscosity [mPa·s]
x1 = 0.1049	1.108
x1 = 0.2021	1.237
x1 = 0.3699	1.52
x1 = 0.4024	1.584
x1 = 0.5109	1.833
x1 = 0.6023	2.084
x1 = 0.6979	2.402
x1 = 0.7994	2.792
x1 = 0.895	3.236

Oc1ccc(Cl)cc1 + CCO
Conditions	viscosity [mPa·s]
298.15 K, 101 kPa, x1 = 0.5	1.454

Cc1cccc(Cl)c1 + CCOC(=O)c1ccccc1
viscosity [mPa·s], 101 kPa
Conditions	303.15 K	313.15 K
x2 = 0.0789	0.775	0.672
x2 = 0.1831	0.822	0.711
x2 = 0.2348	0.851	0.734
x2 = 0.3353	0.913	0.782
x2 = 0.4121	0.973	0.827
x2 = 0.4871	1.043	0.881
x2 = 0.5629	1.122	0.938
x2 = 0.6364	1.212	1.006
x2 = 0.711	1.312	1.084
x2 = 0.7831	1.419	1.166
x2 = 0.8563	1.54	1.257
x2 = 0.9045	1.625	1.321
x2 = 0.9524	1.714	1.388

CC(C)CCO + CCOCCO
313.15 K, 101 kPa
Conditions	viscosity [mPa·s]
x1 = 0.102	1.385
x1 = 0.2036	1.425
x1 = 0.8035	1.945

CNCCO + CCOCCO
viscosity [mPa·s], 101.3 kPa
Conditions	293.15 K	298.15 K	303.15 K	308.15 K	313.15 K	318.15 K	323.15 K
x1 = 0.118	2.547	2.249	1.998	1.785	1.604	1.448	1.313
x1 = 0.34	3.887	3.356	2.92	2.56	2.26	2.006	1.791
x1 = 0.444	4.708	4.021	3.464	3.01	2.634	2.32	2.057
x1 = 0.545	5.72	4.828	4.116	3.541	3.071	2.684	2.362
x1 = 0.737	8.19	6.751	5.636	4.76	4.058	3.492	3.03
x1 = 0.915	11.49	9.252	7.565	6.267	5.255	4.453	3.812

CCOCCO + CCc1ccccc1
viscosity [mPa·s]
Conditions	298.15 K	308.15 K
101 kPa, x1 = 0.0573	0.658	0.557
101 kPa, x1 = 0.1487	0.696	0.597
101 kPa, x1 = 0.2498	0.749	0.648
101 kPa, x1 = 0.3527	0.817	0.708
101 kPa, x1 = 0.4489	0.895	0.773
101 kPa, x1 = 0.4998	0.944	0.812
101 kPa, x1 = 0.5485	0.995	0.852
101 kPa, x1 = 0.6501	1.121	0.945
101 kPa, x1 = 0.7484	1.273	1.05
101 kPa, x1 = 0.8508	1.469	1.178
101 kPa, x1 = 0.9547	1.721	1.331
101.33 kPa, x2 = 0.0993	1.589	–
101.33 kPa, x2 = 0.1968	1.378	–
101.33 kPa, x2 = 0.293	1.22	–
101.33 kPa, x2 = 0.4069	1.055	–
101.33 kPa, x2 = 0.5133	0.929	–
101.33 kPa, x2 = 0.6286	0.822	–
101.33 kPa, x2 = 0.7484	0.736	–
101.33 kPa, x2 = 0.8672	0.677	–

CC(C)CCO + CN1CCCC1=O
298.15 K, 101 kPa
Conditions	viscosity [mPa·s]
x2 = 0.0595	3.229
x2 = 0.1189	2.874
x2 = 0.1501	2.732
x2 = 0.2008	2.549
x2 = 0.2536	2.402
x2 = 0.2994	2.298
x2 = 0.3506	2.205
x2 = 0.4002	2.132
x2 = 0.4519	2.06
x2 = 0.5025	2.015
x2 = 0.5513	1.97
x2 = 0.6039	1.926
x2 = 0.6515	1.889
x2 = 0.7026	1.855
x2 = 0.7505	1.823
x2 = 0.8015	1.791
x2 = 0.8546	1.763
x2 = 0.9046	1.739
x2 = 0.9562	1.715

CC(C)CCO + CN(C)C=O
Conditions	viscosity [mPa·s]
298.15 K, 101 kPa, x2 = 0.5467	1.634

CCn1cc[n+](C)c1.[Cl-] + CN(C)C=O
308.15 K, 101 kPa
Conditions	viscosity [mPa·s]
x1 = 0.0524	1.045
x1 = 0.0867	1.355
x1 = 0.1232	1.705

CCOCCO + CO
298.15 K, 101 kPa
Conditions	viscosity [mPa·s]
x1 = 0.038	0.6216
x1 = 0.0816	0.7062
x1 = 0.1322	0.7916
x1 = 0.1916	0.8844
x1 = 0.2623	0.9885
x1 = 0.3478	1.114
x1 = 0.4534	1.255
x1 = 0.5871	1.422
x1 = 0.7619	1.625

CNC(C)=O + CO
303.15 K, 101 kPa
Conditions	viscosity [mPa·s]
x1 = 0.0999	0.644
x1 = 0.2019	0.798
x1 = 0.3029	0.98
x1 = 0.3939	1.175
x1 = 0.504	1.457
x1 = 0.605	1.778
x1 = 0.6998	2.134
x1 = 0.7934	2.561
x1 = 0.8995	3.14

CC(C)CCO + COCCO
303.15 K, 101.3 kPa
Conditions	viscosity [mPa·s]
x2 = 0.1536	2.477
x2 = 0.2181	2.305
x2 = 0.3068	2.095
x2 = 0.3756	1.955
x2 = 0.4802	1.772
x2 = 0.6881	1.512
x2 = 0.7438	1.47
x2 = 0.8293	1.413
x2 = 0.9356	1.38

CNCCO + COCCO
viscosity [mPa·s], 101.3 kPa
Conditions	293.15 K	298.15 K	303.15 K	308.15 K	313.15 K	318.15 K	323.15 K
x1 = 0.101	2.086	1.866	1.677	1.516	1.375	1.254	1.147
x1 = 0.303	3.283	2.869	2.523	2.234	1.988	1.78	1.601
x1 = 0.403	3.985	3.444	3	2.632	2.324	2.064	1.843
x1 = 0.503	4.964	4.234	3.644	3.163	2.766	2.435	2.156
x1 = 0.703	7.364	6.129	5.157	4.384	3.762	3.256	2.839
x1 = 0.901	10.98	8.877	7.286	6.054	5.088	4.323	3.709
